The test concerns the target T1, toll-like receptor 9 (TLR9) (Homo sapiens, UniProt Q9NR96).
T1 construct: we isolated PBMCs from venous blood collected from healthy donors using density gradient centrifugation; endogenous in cells; host or cells: primary human PBMC (plasmacytoid dendritic cells) from healthy donors
T1 sequence (Q9NR96 26-1032): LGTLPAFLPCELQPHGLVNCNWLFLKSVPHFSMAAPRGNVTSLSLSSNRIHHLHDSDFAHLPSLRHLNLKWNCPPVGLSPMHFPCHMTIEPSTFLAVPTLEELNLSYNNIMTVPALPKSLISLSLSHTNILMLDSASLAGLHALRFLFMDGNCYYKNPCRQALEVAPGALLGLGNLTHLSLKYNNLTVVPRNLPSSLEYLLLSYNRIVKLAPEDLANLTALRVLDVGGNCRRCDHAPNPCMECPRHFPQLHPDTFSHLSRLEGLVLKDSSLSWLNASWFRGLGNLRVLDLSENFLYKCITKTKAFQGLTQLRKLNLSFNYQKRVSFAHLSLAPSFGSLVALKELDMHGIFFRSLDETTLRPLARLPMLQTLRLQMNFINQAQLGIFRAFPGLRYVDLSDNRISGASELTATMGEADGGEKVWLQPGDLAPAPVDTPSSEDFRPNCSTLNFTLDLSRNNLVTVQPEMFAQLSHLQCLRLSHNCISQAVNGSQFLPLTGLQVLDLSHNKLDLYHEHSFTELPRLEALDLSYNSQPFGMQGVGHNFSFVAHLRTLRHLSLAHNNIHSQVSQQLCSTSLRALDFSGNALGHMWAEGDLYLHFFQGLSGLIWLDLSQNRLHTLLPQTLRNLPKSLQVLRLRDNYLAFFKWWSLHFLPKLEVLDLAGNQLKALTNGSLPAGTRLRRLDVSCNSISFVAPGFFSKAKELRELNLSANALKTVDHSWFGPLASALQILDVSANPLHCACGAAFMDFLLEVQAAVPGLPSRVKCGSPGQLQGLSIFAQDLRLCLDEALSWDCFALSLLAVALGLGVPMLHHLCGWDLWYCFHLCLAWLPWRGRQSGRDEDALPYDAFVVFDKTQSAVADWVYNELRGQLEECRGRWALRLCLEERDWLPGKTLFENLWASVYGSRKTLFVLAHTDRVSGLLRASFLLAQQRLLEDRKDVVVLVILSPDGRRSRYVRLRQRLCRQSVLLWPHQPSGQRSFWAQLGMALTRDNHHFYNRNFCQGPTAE
Briefly: Screening of TLR9 antagonistic activity: IFN-alpha production from human PBMC in response to CpGA (ELISA). It is filed as cell-based. The following applies: TLR9 antagonism; Table 2 does not say which of the three TLR9 assays. From the text:
The principle of the screening assay was designed based on the production of Type I interferons (IFN-alpha) from human PBMCs, which results almost exclusively from TLR9 triggering on the PDCs by type A CpG oligonucleotides (CpGA). PBMCs were isolated from venous blood collected from healthy donors using density gradient centrifugation.
A medium throughput biological assay based on toll-like receptor 9 activation has been designed in primary human immune cells to screen the synthesized small molecules with general formula (I) for toll-like receptor 9 (TLR9) antagonism. Among the immune cell subsets circulating in the peripheral blood, two cell subsets plasmacytoid dendritic cells (PDCs) and B lymphocytes has significant expression of TLR9. Plasmacytoid dendritic cells are capable of producing type I interferons (e.g. IFN-alpha) in response to TLR9 ligands. Type A and type B unmethylated cytosine-guanine rich DNA oligonucleotides (CpG oligonucleotides) are the bonafide ligands for TLR9.
In the screening assay we isolated PBMCs from venous blood collected from healthy donors using density gradient centrifugation. PBMCs were cultured the at 2-3*10^5 cells/200 ul/well in a 96 well plate. TLR9 agonist CpGA was added at 1 uM in presence of escalating doses of the synthesized small molecules (0 uM, 0.1 uM, 1 uM, 5 uM, 10 uM and 20 uM). The supernatants was collected after overnight culture from the culture wells and looked for IFN-alpha using enzyme linked immunosorbent assay (ELISA). […] For the biological validation of TLR9 antagonism the bona fide TLR9 agonist CpG oligonucleotides were used.
In general terms: An ELISA detects its analyte on a solid surface through an enzyme-linked reagent.

As usually defined, the IC50 is the point on the concentration scale where inhibition reaches its midpoint. A low value points to greater potency. In turn, `CCN1CCN(CCCn2cnc3c(N4CCN(CC)CC4)nc(N)nc32)CC1` [Compound 4, 6-(4-ethylpiperazin-1-yl)-9-(3-(4-ethylpiperazin-1-yl)propyl)-9H-purin-2-amine] registered an IC50 of 188 nM.

In turn, `CCN1CCN(CCCn2cnc3c(N4CCN(CC)CC4)nc(NCc4ccc(OC)cc4)nc32)CC1` [Compound 5, 6-(4-ethylpiperazin-1-yl)-9-(3-(4-ethylpiperazin-1-yl)propyl)-N-(4-methoxybenzyl)-9H-purin-2-amine] displayed an IC50 of 203 nM. The same measure for `CCN1CCN(CCCn2cnc3c(N4CCN(CC)CC4)nc(NCc4ccc(F)cc4)nc32)CC1` [Compound 6, 6-(4-ethylpiperazin-1-yl)-9-(3-(4-ethylpiperazin-1-yl)propyl)-N-(4-fluorobenzyl)-9H-purin-2-amine]: 470 nM; for `CCN1CCN(CCCn2cnc3c(N4CCN(CC)CC4)nc(NCc4ccc(N(CC)CC)cc4)nc32)CC1` [Compound 7, N-(4-(diethylamino)benzyl)-6-(4-ethylpiperazin-1-yl)-9-(3-(4-ethylpiperazin-1-yl)propyl)-9H-purin-2-amine]: 438 nM; for `CCN1CCN(CCCn2cnc3c(N4CCN(CC)CC4)nc(NCc4ccccc4)nc32)CC1` [Compound 8, N-benzyl-6-(4-ethylpiperazin-1-yl)-9-(3-(4-ethylpiperazin-1-yl)propyl)-9H-purin-2-amine]: 140 nM. `CCN1CCN(CCCn2cnc3c(N4CCN(CC)CC4)nc(N4CCCC4)nc32)CC1` [Compound 9] registered an IC50 of 1830 nM.

With `CCN1CCN(CCCn2cnc3c(N4CCN(CC)CC4)nc(NC(=O)c4ccccc4)nc32)CC1` [Compound 10, N-(6-(4-ethylpiperazin-1-yl)-9-(3-(4-ethylpiperazin-1-yl)propyl)-9H-purin-2-yl)benzamide], the IC50 stood at 339 nM. As for `CCN1CCN(CCCn2cnc3c(N4CCN(CC)CC4)nc(NC(=O)C4CCCN4)nc32)CC1` (stereo not shown) [Compound 12, N-(6-(4-ethylpiperazin-1-yl)-9-(3-(4-ethylpiperazin-1-yl)propyl)-9H-purin-2-yl) pyrrolidine-2-carboxamide], the IC50 stood at 378 nM. `CCN1CCN(CCCn2cnc3c(N4CCN(C5CCCC5)CC4)nc(NCc4ccc(N(CC)CC)cc4)nc32)CC1` [Compound 24]: it took 145 nM to reach half-maximal inhibition (IC50). Regarding `CCN1CCN(CCCn2cnc3c(N4CCN(C5CCCC5)CC4)nc(NCc4ccc(F)cc4)nc32)CC1` [Compound 25, 6-(4-cyclopentylpiperazin-1-yl)-9-(3-(4-ethylpiperazin-1-yl)propyl)-N-(4-fluorobenzyl)-9H-purin-2-amine], the IC50 came out at 254 nM.

`CCN1CCN(CCCn2cnc3c(N4CCN(C5CCCC5)CC4)nc(NCc4ccc(OC)cc4)nc32)CC1` [Compound 26, 6-(4-cyclopentylpiperazin-1-yl)-9-(3-(4-ethylpiperazin-1-yl)propyl)-N-(4-methoxybenzyl)-9H-purin-2-amine] showed an IC50 of 120 nM. Against the preceding molecule, the IC50 is about 2.1-fold lower. The same measure for `CCN1CCN(CCCn2cnc3c(N4CCN(C5CCCC5)CC4)nc(NC(=O)c4ccc(CN(C)C)cc4)nc32)CC1` [Compound 27, N-(6-(4-cyclopentylpiperazin-1-yl)-9-(3-(4-ethylpiperazin-1-yl)propyl)-9H-purin-2-yl)-4-((dimethylamino)methyl)benzamide]: 56 nM; for `Nc1nc(N2CCN(C3CCCC3)CC2)c2ncn(CCCN3CCCC3)c2n1` [Compound 29, 6-(4-cyclopentylpiperazin-1-yl)-9-(3-(pyrrolidin-1-yl)propyl)-9H-purin-2-amine]: 122 nM. `COc1ccc(CNc2nc(N3CCN(C4CCCC4)CC3)c3ncn(CCCN4CCCC4)c3n2)cc1` [Compound 30, 6-(4-cyclopentylpiperazin-1-yl)-N-(4-methoxybenzyl)-9-(3-(pyrrolidin-1-yl)propyl)-9H-purin-2-amine] had an IC50 of 241 nM. For `CN(C)Cc1ccc(C(=O)Nc2nc(N3CCN(C4CCCC4)CC3)c3ncn(CCCN4CCCC4)c3n2)cc1` [Compound 31, N-(6-(4-cyclopentylpiperazin-1-yl)-9-(3-(pyrrolidin-1-yl)propyl)-9H-purin-2-yl)-4-((dimethylamino)methyl)benzamide], the IC50 was determined as 5 nM.

As to `Fc1ccc(CNc2nc(N3CCN(C4CCCC4)CC3)c3ncn(CCCN4CCCC4)c3n2)cc1` [Compound 32, 6-(4-cyclopentylpiperazin-1-yl)-N-(4-fluorobenzyl)-9-(3-(pyrrolidin-1-yl)propyl)-9H-purin-2-amine], inhibition was half-maximal at 100 nM (IC50). Molecule `CCN1CCN(c2nc(NCc3ccc(OC)cc3)nc3c2ncn3CCCN2CCCC2)CC1` [Compound 34, 6-(4-ethylpiperazin-1-yl)-N-(4-methoxybenzyl)-9-(3-(pyrrolidin-1-yl)propyl)-9H-purin-2-amine] returned an IC50 of 80 nM. In turn, `CCN1CCN(CCCn2cnc3c(N4CCN(C(=O)C5CCCC5)CC4)nc(NCc4ccc(N(CC)CC)cc4)nc32)CC1` [Compound 38, Cyclopentyl(4-(2-(4-(diethylamino)benzylamino)-9-(3-(4-ethylpiperazin-1-yl)propyl)-9H-purin-6-yl)piperazin-1-yl)methanone] had an IC50 of 8800 nM. “Iso-butyl(1-(6-(4-ethylpiperazin-1-yl)-9-(3-(4-ethylpiperazin-1-yl)propyl)-9H-purin-2-yl)amino)-1-oxo-3-phenylpropan-2-yl)carbamate [Compound 15]” yielded an IC50 of 470 nM.

(Values after patent US11168084B2, “Purine based compounds as toll-like receptor 9 antagonist” (COUNCIL OF SCIENTIFIC & INDUSTRIAL RESEARCH, priority 2017, dated 2021).)
